According to patent US8318899B2, “Lytic domain fusion constructs and methods of making and using same” (Board of Supervisors of Louisiana State University and …, priority 2008, dated 2012):
“Also recorded” adds a separate entry of the source.

Key:
MDA-MB-435 cells = assay: Fluorescence microscopy, MDA-MB-435 breast cancer cells; assay type: cell-based, human; settings: 10 μM, 5 minutes exposure
Experimental: In brief, human breast cancer cells (MDA-MB435, passage #252) were seeded onto culture dishes. The following markers were introduced prior to adding EP100: DRAQ5™ (Alexis Corporation)—blue—was used for staining of the nucleus and MitoTracker® Red CMXRos (M7512) (Molecular Probes, Inc. OR) were applied for visualizing intact mitochondria. Cell membranes were stained with wheat germ alexa fluor green conjugates (Molecular Probes, Inc. OR).
Cells were loaded first with Mitotracker dye, according to the manufacturers recommendation. […] Culture dishes with saline only served as controls. The supernatant was removed and the remaining cells prepared for fluorescence microscopy imaging.

[1] = test system: MDA-MB-435S.luc xenograft; assay: MDA-MB-435S.luc xenograft, LHRH fusion constructs; assay type: in vivo, Nu/Nu mice
Experimental: For LHRH fusion constructs, the mouse xenograft model for breast cancer was used. In brief, Nu/Nu female mice, outbred strain, age 5 weeks (Charles River) were injected subcutaneously with a MDA-MB-435S.luc/Matrigel suspension (1×10^6 cells). Treatment was started on day 21 after tumor cell injection and continued on day 26 and 29. The doses for weekly fusion construct injections were 2, 0.2 and 0.02 mg/kg body weight, given as a bolus single injection. All mice were necropsied 34 days after tumor cell injection-baseline values for tumor weights were obtained by sacrificing 8 mice at treatment start. […] Tumor weights were recorded at necropsy, part of the tumors were frozen at −80° C. for luciferase assay determination.
Characteristics of tumors at necropsy are summarized in FIG. 10: (A) tumor weight, (B) changes of tumor weights compared to baseline, (C) total number of live tumor cells, (D) changes of total live tumor cells compared to baseline, and (E) body weights at baseline and necropsy. Viability of tumor cells was determined at the end of the study when tumors were measured for luciferase activity. Treatment efficacy was calculated as difference between measurements at the beginning of treatment compared to the measurement at the end of study (FIGS. 10B and 10D).

MCF-7 xenograft = assay: MCF-7 breast cancer xenograft; assay type: in vivo, nude mice; settings: 2 × 3 wk, 19 d, growth delay
Experimental: (§1) In vivo efficacy studies were conducted as monotherapy, or a combination therapy with standard of care treatments in nude mice bearing human breast cancer xenografts: MDA-MB435S.luc (s.c.), MCF-7 (estrogen receptor alpha positive), human ovarian cancer xenografts: OVCAR-3, (s.c.), human prostate cancer xenografts: PC-3 (androgen receptor negative).
PHOR 18-LHRH (338613) Combination therapies were conducted in a MCF-7 breast cancer xenograft models.
(§2) Mice were sacrificed one week after the last injection and blood collected for chemistry panel, tumor weights and body weights were recorded. Part of the tumors were fixed in PBS buffered 10% formalin for histological evaluation.

MDA-MB-435S xenograft [2] = assay: MDA-MB-435S xenograft, kinetics after a single injection; assay type: in vivo, Nu/Nu mice; settings: single i.v. injection 0.2 and 2 mg/kg
Experimental: In brief, Nu/Nu female mice, outbred strain, age 5 weeks (Charles River), were injected (s.c.) into the interscapular region with a MDA-MB-435 S (passage #249)/Matrigel suspension (2.4×10^6 cells/mouse) as described in Example 10. […] The doses were given as a single bolus intravenous injection via lateral tail vein.
Mice were sacrificed 1, 2 and 16 hours after treatment with Phor 18-LHRH (338613) or saline. At study endpoint body weight, tumor weights were determined and tumors were fixed in phosphate buffered 10% formalin.

MDA-MB435S xenograft = assay: MDA-MB435S xenograft, multiple dose regimen; assay type: in vivo, Nu/Nu mice; settings: 0.002 and 0.2 mg/kg, multiple i.v. injections
Experimental: In order to determine the minimal effective dose necessary to reduce MDA-MB435S xenograft weights in a multiple dose regimen, Nu/Nu female mice, outbred strain, age 8 weeks (Charles River), were injected (s.c.) into the interscapular region with a MDA-MB435S (passage #253)/Matrigel suspension (2×10^6 cells/mouse) as previously described above. […] The doses were given as a single bolus intravenous injection via lateral tail vein on days 15, 16, 17, 20, 21, 22, 23, 27, 28, 29, 30, 33, 34, 35, 36, 37, 38, 40, 41, 42 after tumor cell inoculation. Saline injections served as control groups.
Each treatment group consisted of 16 mice. During the entire study tumor volumes were recorded twice weekly. Final necropsy was conducted on day 45 after tumor cell injection. […] due to occlusion of the tail vein in most mice. At study endpoint body weight, tumor weights were determined and fixed in phosphate buffered 10% formalin.

OVCAR-3 = assay: IC50 in OVCAR-3 ovarian cancer cell line; assay type: cell-based, human
Experimental: MDA-MB435S.luc cells were grown in Leibovitz's L 15 medium, 10% fetal bovine serum, 0.01 mg/ml bovine insulin, 100 IU/ml penicillin, 100 microg/ml streptomycin. The cells were cultured in tight closed flasks. The incubations were conducted using 96 well plates at 10,000 cells per well. Cells were typically seeded into 96 well plates and media was replaced after 48 hours of incubation. Each assay was conducted at increasing concentrations of 0, 0.001, 0.01, 0.05, 0.1, 0.5, 1, 2, 5, 10 and 100 micromolar doses of lytic peptide-binding domain conjugate. Each lytic peptide-binding domain conjugate provided in lyophilized form and was freshly dissolved in saline and added to cells. The duration of incubation was typically 24 h, and cell viability assays were conducted using formazan conversion assays (MTT assay). Controls contained saline or 0.1% triton as reference for 0 and 100% cell death, respectively.
To ascertain the IC50 of various fusion constructs on different human cancer cell lines compared to cisplatinum, IC50 of fusion constructs were evaluated as in Table 3.

MDA-MB-435S xenograft [3] = assay: MDA-MB-435S xenograft, once weekly for 3 weeks (minimal effective dose); assay type: in vivo, Nu/Nu mice; settings: H&E
Experimental: as §1, §2
To determine the minimal effective dose necessary to reduce MDA-MB-435S xenograft weights in a single dose regimen, Nu/Nu female mice, outbred strain, age 5 weeks (Charles River), were injected (s.c.) into the interscapular region with a MDA-MB435S (passage #249)/Matrigel suspension (2.4×10^6 cells/mouse) [Leuschner 2006].
Each group consisted of 16 mice, which were injected once a week for 3 weeks. […] During the entire study tumor volumes were recorded twice weekly. […]
Treatment response was determined by tumor weights and tumor weight change at necropsy compared to saline controls and untargeted CLIP71 treatment. […] Statistical evaluation of data sets were conducted in GraphPad Prizm 4 and significance calculated by Wilcoxon signed-rank test.

With “KFAKFAKKFAKFAKKFAKQHWSYGLRPG [Phor18-LHRH]” the “effect on plasma membrane (fluorescence microscopy)” value (MDA-MB-435 cells) was “disintegration of the plasma membrane”, the “tumor volume during treatment / 30 days” value ([1]; 0.02, 0.2, 2 mg/kg weekly) was “smallest tumor volumes” and the “overall efficacy in reducing tumor weight and live tumor cells (vs other constructs / reference Phor21-βCG-ala)” value ([1]; mouse, in vivo) was “Equally effective”. The “Median Tumor Weight vs Saline P < 0.05 (dose)” value (MCF-7 xenograft) was 0.02 mg/kg growth, the “time after injection to destruction of tumors (histology)” value (MDA-MB-435S xenograft [2]) was 1 hour and the tumor response (MDA-MB435S xenograft) was “tumor regression at both dose levels; also recorded: eradication of tumor cells”. For the same sequence, the IC50 (OVCAR-3) was 3 ± 0.5 µM and the “dose with significant necrosis in tumors (histology)” value (MDA-MB-435S xenograft [3]) was 0.0002 mg/kg.
